Reference: ChEMBL document CHEMBL1201862, “PubChem BioAssay data set” (2004)
Active and inactive are the calls of the source.

How the values were obtained:
[1] = biological target: T1, Sphingosine 1-phosphate receptor 4 (Homo sapiens, UniProt O95977); assay: Fluorescence dose response cell-based high throughput screening assay for antagonists of the Sphingosine 1-Phosphate Receptor 4 (S1P4). [Related pubchem assays: 1524 (Confirmation in triplicates.), 1510 (Primary screen.)]; assay type: functional
T1 sequence (O95977 whole entry): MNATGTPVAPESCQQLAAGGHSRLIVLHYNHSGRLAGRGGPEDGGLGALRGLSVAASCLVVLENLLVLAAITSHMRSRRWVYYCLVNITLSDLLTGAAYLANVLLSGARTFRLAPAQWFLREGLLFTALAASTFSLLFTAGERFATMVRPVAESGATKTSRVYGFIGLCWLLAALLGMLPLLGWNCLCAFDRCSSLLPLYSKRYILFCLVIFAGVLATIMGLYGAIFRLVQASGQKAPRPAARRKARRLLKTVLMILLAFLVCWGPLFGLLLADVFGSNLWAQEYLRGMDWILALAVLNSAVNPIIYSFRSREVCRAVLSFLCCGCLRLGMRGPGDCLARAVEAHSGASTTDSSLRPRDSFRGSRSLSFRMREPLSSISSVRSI

[2] = biological target: T2, Streptokinase A (Streptococcus pyogenes serotype M1, UniProt P10520); assay: S. pyogenes streptokinase expression inhibitors, potency, dose response, plasminogen activation absorbance, OD405 (AID 1914); assay type: functional, Streptococcus pyogenes M1 GAS;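 note: secreted streptokinase activity via plasminogen activation per viability signal from cell pellet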
T2 sequence (P10520 whole entry): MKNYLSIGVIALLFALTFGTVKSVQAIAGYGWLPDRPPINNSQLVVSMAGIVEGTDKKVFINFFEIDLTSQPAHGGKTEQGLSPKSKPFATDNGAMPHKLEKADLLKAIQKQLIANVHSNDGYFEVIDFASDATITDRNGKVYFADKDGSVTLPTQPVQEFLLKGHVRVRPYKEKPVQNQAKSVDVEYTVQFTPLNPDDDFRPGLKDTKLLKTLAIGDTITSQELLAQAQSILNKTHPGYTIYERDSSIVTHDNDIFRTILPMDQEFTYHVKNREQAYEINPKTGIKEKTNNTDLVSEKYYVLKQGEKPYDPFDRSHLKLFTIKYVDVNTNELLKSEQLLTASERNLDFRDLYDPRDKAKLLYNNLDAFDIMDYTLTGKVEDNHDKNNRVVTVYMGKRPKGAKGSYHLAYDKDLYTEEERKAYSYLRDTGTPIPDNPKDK

[3] = HeLa cell cytotoxicity, dose response, cytotoxicity control for MgcRacGAP inhibitor project (AID 624300); assay type: functional
[4] = biological target: T3, Apoptotic protease-activating factor 1 (Homo sapiens, UniProt O14727); assay type: functional
T3 sequence (O14727 whole entry): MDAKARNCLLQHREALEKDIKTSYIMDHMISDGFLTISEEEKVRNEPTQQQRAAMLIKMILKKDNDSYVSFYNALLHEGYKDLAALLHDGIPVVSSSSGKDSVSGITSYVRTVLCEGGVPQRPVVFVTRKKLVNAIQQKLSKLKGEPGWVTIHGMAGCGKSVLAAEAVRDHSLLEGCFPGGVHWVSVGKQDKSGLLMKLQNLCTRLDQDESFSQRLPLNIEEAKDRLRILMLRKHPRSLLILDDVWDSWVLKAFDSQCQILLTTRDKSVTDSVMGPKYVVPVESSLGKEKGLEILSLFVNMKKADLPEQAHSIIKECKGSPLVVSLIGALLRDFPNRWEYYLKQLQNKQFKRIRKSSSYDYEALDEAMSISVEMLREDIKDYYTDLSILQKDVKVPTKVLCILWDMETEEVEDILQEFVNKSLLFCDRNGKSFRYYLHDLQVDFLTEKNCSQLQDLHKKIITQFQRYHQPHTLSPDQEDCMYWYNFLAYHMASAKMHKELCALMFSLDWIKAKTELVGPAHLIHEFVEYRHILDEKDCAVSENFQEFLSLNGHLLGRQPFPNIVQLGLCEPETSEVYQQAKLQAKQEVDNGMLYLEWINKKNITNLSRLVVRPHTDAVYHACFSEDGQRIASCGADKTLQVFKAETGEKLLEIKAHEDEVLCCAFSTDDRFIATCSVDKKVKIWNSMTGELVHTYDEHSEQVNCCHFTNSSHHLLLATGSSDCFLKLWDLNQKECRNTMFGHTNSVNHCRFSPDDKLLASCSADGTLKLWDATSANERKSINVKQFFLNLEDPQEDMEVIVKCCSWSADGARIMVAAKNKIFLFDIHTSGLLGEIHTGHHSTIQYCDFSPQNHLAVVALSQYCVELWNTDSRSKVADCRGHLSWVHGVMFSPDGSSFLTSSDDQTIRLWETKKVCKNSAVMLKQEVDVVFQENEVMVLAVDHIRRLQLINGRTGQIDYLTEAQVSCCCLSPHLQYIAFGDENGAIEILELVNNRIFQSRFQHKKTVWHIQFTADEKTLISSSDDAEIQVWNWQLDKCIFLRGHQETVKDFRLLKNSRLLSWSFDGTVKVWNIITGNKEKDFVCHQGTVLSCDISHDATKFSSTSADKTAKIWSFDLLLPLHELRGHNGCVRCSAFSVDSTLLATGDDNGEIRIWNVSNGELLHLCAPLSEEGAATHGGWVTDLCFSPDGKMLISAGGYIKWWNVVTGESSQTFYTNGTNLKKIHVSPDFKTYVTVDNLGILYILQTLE

COc1cc(NC(=O)Cn2ncc(Cl)c(Cl)c2=O)c(C)cc1[N+](=O)[O-]
IC50 [1]: 1.32 µM (active)

Cc1ccc(C)c(S(=O)(=O)N2CCN(Cc3ccc(O)c4ncccc34)CC2)c1
EC50 [2]: > 150 µM (not active)

Oc1ccc(/C=N\Nc2cc(N3CCOCC3)nc(N3CCOCC3)n2)c(O)c1
CC50 [3]: 100 µM (active)
IC50 [4]: 7.15 µM (active)
